Data as given in BindingDB's records for doi:10.1046/j.1472-8206.2002.00076.x (Shinshu University, 2002).
Side chains are listed from the residue outwards. Peptide text beside a SMILES is read from it. * marks the point of attachment. Nicotinoyl = O=C(c1cccnc1)*; Cbz = O=C(OCc1ccccc1)*

Assays:
[1] = biological target: T1, Type-1 angiotensin II receptor (Homo sapiens, UniProt P30556)
T1 sequence (P30556 whole entry): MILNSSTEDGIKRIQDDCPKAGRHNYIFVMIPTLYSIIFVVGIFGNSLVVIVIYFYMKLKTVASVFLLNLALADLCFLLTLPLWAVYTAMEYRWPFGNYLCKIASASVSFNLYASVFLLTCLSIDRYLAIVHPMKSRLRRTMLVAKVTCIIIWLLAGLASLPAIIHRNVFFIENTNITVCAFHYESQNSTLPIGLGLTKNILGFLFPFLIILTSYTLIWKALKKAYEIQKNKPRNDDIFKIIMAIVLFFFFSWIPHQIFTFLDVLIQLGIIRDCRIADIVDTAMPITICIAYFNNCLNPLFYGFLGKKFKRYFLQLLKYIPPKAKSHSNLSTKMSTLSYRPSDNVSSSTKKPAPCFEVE

[2] = biological target: T2, Type-1 angiotensin II receptor A (Rattus norvegicus, UniProt P25095)
T2 sequence (P25095 whole entry): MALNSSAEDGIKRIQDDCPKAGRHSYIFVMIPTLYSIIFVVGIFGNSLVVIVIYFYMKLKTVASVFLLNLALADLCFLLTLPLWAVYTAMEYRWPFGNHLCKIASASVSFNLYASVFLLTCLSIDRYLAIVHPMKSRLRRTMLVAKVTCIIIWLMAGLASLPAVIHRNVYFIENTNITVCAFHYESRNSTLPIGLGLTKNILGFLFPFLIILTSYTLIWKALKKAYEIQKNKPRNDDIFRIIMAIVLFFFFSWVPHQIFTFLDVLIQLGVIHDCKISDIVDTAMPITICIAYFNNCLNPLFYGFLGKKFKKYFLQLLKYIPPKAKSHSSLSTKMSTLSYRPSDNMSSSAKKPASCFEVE

[3] = biological target: T3, Type-1 angiotensin II receptor B (Rattus norvegicus, UniProt P29089)
T3 sequence (P29089 whole entry): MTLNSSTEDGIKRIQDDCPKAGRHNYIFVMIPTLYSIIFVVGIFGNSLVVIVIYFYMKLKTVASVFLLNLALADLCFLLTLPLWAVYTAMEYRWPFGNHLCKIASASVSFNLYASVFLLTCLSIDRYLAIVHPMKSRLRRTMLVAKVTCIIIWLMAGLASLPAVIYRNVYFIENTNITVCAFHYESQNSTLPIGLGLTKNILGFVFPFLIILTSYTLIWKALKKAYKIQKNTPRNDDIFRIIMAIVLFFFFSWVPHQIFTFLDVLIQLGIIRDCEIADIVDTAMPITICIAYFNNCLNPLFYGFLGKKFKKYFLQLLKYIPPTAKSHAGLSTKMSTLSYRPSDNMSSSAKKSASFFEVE

[4] = biological target: T4, Type-2 angiotensin II receptor (Rattus norvegicus, UniProt P35351)
T4 sequence (P35351 whole entry): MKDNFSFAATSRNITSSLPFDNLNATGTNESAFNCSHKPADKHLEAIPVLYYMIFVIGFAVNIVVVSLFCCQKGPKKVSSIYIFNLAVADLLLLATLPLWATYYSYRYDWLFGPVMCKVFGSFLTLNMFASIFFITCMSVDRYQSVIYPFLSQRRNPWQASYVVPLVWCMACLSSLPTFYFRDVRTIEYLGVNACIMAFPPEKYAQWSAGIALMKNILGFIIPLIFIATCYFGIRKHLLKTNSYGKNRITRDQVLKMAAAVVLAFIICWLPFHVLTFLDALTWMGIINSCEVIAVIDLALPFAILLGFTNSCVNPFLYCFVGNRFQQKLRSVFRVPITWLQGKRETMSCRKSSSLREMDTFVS

Row | Ki [1] [nM] | Ki [2] [nM] | Ki [3] [nM] | Ki [4] [nM] | Compound
1 | 0.17 | 0.12 | 0.12 | > 10000 | CCOc1nc2cccc(C(=O)O)c2n1Cc1ccc(-c2ccccc2-c2nnn[nH]2)cc1
2 |  | 0.57 |  | > 10000 | CCCCc1nc(Cl)c(C(=O)O)n1Cc1ccc(-c2ccccc2-c2nn[nH]n2)cc1 [2-Butyl-5-chloro-3-[2'-(1H-tetrazol-5-yl)-biphenyl-4-ylmethyl]-3H-imidazole-4-carboxylic acid]
3 | 1.24 | 1.02 | 0.67 | 9360 | CCc1nn(Cc2ccc(-c3ccccc3-c3nnn[nH]3)cc2)c(=NC(=O)C2=C(C(=O)O)CCC2)s1 [KRH-594]
4 |  |  |  | 0.37 | CC[C@H](C)[C@H](NC(=O)[C@@H]1CCCN1C(=O)[C@H](Cc1c[nH]cn1)NC(=O)[C@H](CCCCNC(=O)[C@H](CCCN=C(N)N)NC(=O)OCc1ccccc1)NC(=O)[C@H](Cc1ccc(O)cc1)NC(=O)c1cccnc1)C(=O)O [NSC_123794] (Nicotinoyl-YK([Arg-Cbz])HPI-OH)
